# Values joined by “and” are separate entries in the source; they are usually repeats but may differ in a detail not shown here. Equal entries are not always repeated. Inconclusive results and toxic doses are left out.
# Tested on: P388 leukemia ip, CD2F1 mice, survival T/C
# Assay: NCI In Vivo Anticancer Drug Screen. Data for tumor model P388 Leukemia (intraperitoneal) in CD2F1 (CDF1) mice
# Settings: endpoint: median survival time, higher = longer survival
# Summary of the method: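 Mice carrying the transplanted tumor received test compound or vehicle. Survival was recorded in each group, and the value is the treated-group measurement divided by that of the vehicle-treated control group.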
# [1] = dose: 50.0 mg/kg/injection, schedule: Q01DX009 (ip), vehicle: saline
# [2] = dose: 50.0 mg/kg/injection, schedule: Q01DX005 (ip), vehicle: Klucel (hydroxypropylcellulose) (HPC)
# [3] = dose: 100.0 mg/kg/injection, schedule: Q01DX005 (ip), vehicle: Klucel (hydroxypropylcellulose) (HPC)
# [4] = dose: 200.0 mg/kg/injection, schedule: Q01DX005 (ip), vehicle: Klucel (hydroxypropylcellulose) (HPC)
# [5] = dose: 50.0 mg/kg/injection, schedule: Q01DX009 (ip), vehicle: saline with Tween-80
# [6] = dose: 100.0 mg/kg/injection, schedule: Q01DX009 (ip), vehicle: saline with Tween-80
# [7] = dose: 25.0 mg/kg/injection, schedule: Q01DX009 (ip), vehicle: water
# [8] = dose: 60.0 mg/kg/injection, schedule: Q01DX005 (ip), vehicle: saline with Tween-80
# [9] = dose: 120.0 mg/kg/injection, schedule: Q01DX005 (ip), vehicle: saline with Tween-80
# [10] = dose: 240.0 mg/kg/injection, schedule: Q01DX005 (ip), vehicle: saline with Tween-80
# [11] = dose: 50.0 mg/kg/injection, schedule: Q04DX003 (ip), vehicle: saline with Tween-80
# [12] = dose: 100.0 mg/kg/injection, schedule: Q04DX003 (ip), vehicle: saline with Tween-80
smiles,measurement,setting,value
CC1=NN(c2cccc(S(=O)(=O)O)c2)C(=O)C1,T/C,"dose: 25.0 mg/kg/injection, schedule: Q01DX009 (ip), vehicle: saline sonified",100 % of control
same,T/C,"dose: 50.0 mg/kg/injection, schedule: Q01DX009 (ip), vehicle: saline sonified",100 % of control
same,T/C,[1],89 % of control
same,T/C,"dose: 100.0 mg/kg/injection, schedule: Q01DX009 (ip), vehicle: saline sonified",100 % of control
same,T/C,"dose: 100.0 mg/kg/injection, schedule: Q01DX009 (ip), vehicle: saline",95 % of control
same,T/C,"dose: 200.0 mg/kg/injection, schedule: Q01DX009 (ip), vehicle: saline",96 % of control
CS(=O)(=O)N/N=C1/C=C2C/C(=N\NS(C)(=O)=O)C=C2C1,T/C,[2],92 % of control
same,T/C,[3],96 % of control
same,T/C,[4],95 % of control
CNC(=O)OCc1cc(C)cc(C)c1-c1ccco1,T/C,[5],101 % of control
same,T/C,[6],98 % of control
same,T/C,"dose: 200.0 mg/kg/injection, schedule: Q01DX009 (ip), vehicle: saline with Tween-80",95 % of control
CC(C)(C)c1cc2c3c(c1)Oc1cc(C(C)(C)C)cc4c1C3(O)c1c(cc(C(C)(C)C)cc1O4)O2,T/C,"dose: 1.56 mg/kg/injection, schedule: Q01DX005 (ip), vehicle: Klucel (hydroxypropylcellulose) (HPC)",107 % of control
same,T/C,"dose: 3.12 mg/kg/injection, schedule: Q01DX005 (ip), vehicle: Klucel (hydroxypropylcellulose) (HPC)",104 % of control and 108 % of control
same,T/C,"dose: 6.25 mg/kg/injection, schedule: Q01DX005 (ip), vehicle: Klucel (hydroxypropylcellulose) (HPC)",101 % of control and 110 % of control and 118 % of control
same,T/C,"dose: 12.5 mg/kg/injection, schedule: Q01DX005 (ip), vehicle: Klucel (hydroxypropylcellulose) (HPC)",107 % of control and 111 % of control and 120 % of control
same,T/C,"dose: 25.0 mg/kg/injection, schedule: Q01DX005 (ip), vehicle: Klucel (hydroxypropylcellulose) (HPC)",102 % of control
CCc1ccc(C(C)(C)C)cc1,T/C,"dose: 37.5 mg/kg/injection, schedule: Q01DX009 (ip), vehicle: saline with Tween-80",110 % of control
same,T/C,[5],104 % of control
same,T/C,"dose: 75.0 mg/kg/injection, schedule: Q01DX009 (ip), vehicle: saline with Tween-80",111 % of control
same,T/C,[6],109 % of control
same,T/C,"dose: 132.0 mg/kg/injection, schedule: Q01DX009 (ip), vehicle: saline with Tween-80",113 % of control
same,T/C,"dose: 150.0 mg/kg/injection, schedule: Q01DX009 (ip), vehicle: saline with Tween-80",102 % of control
O=C1C2C(C(=O)N1c1ccc(OCc3ccccc3)cc1)C1c3ccccc3C2C2CCCCN21 (configuration not stated),T/C,"dose: 3.13 mg/kg/injection, schedule: Q01DX009 (ip), vehicle: water",100 % of control
same,T/C,"dose: 6.25 mg/kg/injection, schedule: Q01DX009 (ip), vehicle: water",105 % of control
same,T/C,"dose: 12.5 mg/kg/injection, schedule: Q01DX009 (ip), vehicle: water",109 % of control
same,T/C,[7],111 % of control
O=C(CCl)N1CCN(c2ccccn2)CC1,T/C,[8],109 % of control
same,T/C,[9],110 % of control
same,T/C,[10],116 % of control
CCC(C(=O)O)C(=O)O.[NH-]CC[NH-].[Pt+2],T/C,"dose: 25.0 mg/kg/injection, schedule: Q01DX009 (ip), vehicle: saline with Tween-80",190 % of control
same,T/C,"dose: 33.0 mg/kg/injection, schedule: Q04DX003 (ip), vehicle: saline",120 % of control
same,T/C,"dose: 50.0 mg/kg/injection, schedule: Q01DX009 (ip), vehicle: Klucel (hydroxypropylcellulose) (HPC)",160 % of control
same,T/C,[5],218 % of control
same,T/C,[11],181 % of control
same,T/C,"dose: 100.0 mg/kg/injection, schedule: Q01DX009 (ip), vehicle: Klucel (hydroxypropylcellulose) (HPC)",205 % of control
same,T/C,[12],195 % of control
same,T/C,"dose: 200.0 mg/kg/injection, schedule: Q01DX009 (ip), vehicle: Klucel (hydroxypropylcellulose) (HPC)",196 % of control
same,T/C,"dose: 400.0 mg/kg/injection, schedule: Q04DX003 (ip), vehicle: saline",155 % of control
O=[N+]([O-])c1cccc(C(Nc2nncs2)Nc2nncs2)c1,T/C,[2],106 % of control and 96 % of control
same,T/C,[3],95 % of control
same,T/C,[4],94 % of control
same,T/C,"dose: 400.0 mg/kg/injection, schedule: Q01DX005 (ip), vehicle: Klucel (hydroxypropylcellulose) (HPC)",96 % of control
COc1c(C#N)c2c(c(OC)c1OC)-c1ccc(OC)c(=O)cc1[C@@H](NC(C)=O)CC2,T/C,"dose: 3.12 mg/kg/injection, schedule: Q01DX009 (ip), vehicle: Klucel (hydroxypropylcellulose) (HPC)",113 % of control
CN=C(NC(C)C)c1ccccc1,T/C,"dose: 12.5 mg/kg/injection, schedule: Q01DX009 (ip), vehicle: saline",91 % of control
same,T/C,"dose: 25.0 mg/kg/injection, schedule: Q01DX009 (ip), vehicle: saline",88 % of control
same,T/C,[1],104 % of control and 88 % of control
Cn1c(=O)ccc2c3ncccc3c(C(F)(F)F)cc21,T/C,"dose: 100.0 mg/kg/injection, schedule: Q01DX001 (ip), vehicle: saline with Tween-80",99 % of control
same,T/C,"dose: 200.0 mg/kg/injection, schedule: Q01DX001 (ip), vehicle: saline with Tween-80",100 % of control
same,T/C,"dose: 400.0 mg/kg/injection, schedule: Q01DX001 (ip), vehicle: saline with Tween-80",101 % of control
NC1=NC(O)(c2ccccc2)C(O)(c2ccccc2)N1 (configuration not stated),T/C,"dose: 25.0 mg/kg/injection, schedule: Q04DX002 (ip), vehicle: saline",98 % of control
same,T/C,"dose: 50.0 mg/kg/injection, schedule: Q04DX002 (ip), vehicle: saline",97 % of control
same,T/C,"dose: 100.0 mg/kg/injection, schedule: Q04DX002 (ip), vehicle: saline",98 % of control
C[C@H]1CC[C@@]2(C)C(CCC(=O)C2(C)O)[C@]1(C)CC(=O)c1ccoc1 (some centres not stated),T/C,"dose: 3.75 mg/kg/injection, schedule: Q01DX005 (ip), vehicle: Klucel (hydroxypropylcellulose) (HPC)",91 % of control
same,T/C,"dose: 7.5 mg/kg/injection, schedule: Q01DX005 (ip), vehicle: Klucel (hydroxypropylcellulose) (HPC)",88 % of control
same,T/C,"dose: 15.0 mg/kg/injection, schedule: Q01DX005 (ip), vehicle: Klucel (hydroxypropylcellulose) (HPC)",88 % of control
same,T/C,"dose: 30.0 mg/kg/injection, schedule: Q01DX005 (ip), vehicle: Klucel (hydroxypropylcellulose) (HPC)",88 % of control
CC1=CC(C)=NC(N)=NN1,T/C,[7],99 % of control
same,T/C,"dose: 50.0 mg/kg/injection, schedule: Q01DX009 (ip), vehicle: water",108 % of control
same,T/C,"dose: 100.0 mg/kg/injection, schedule: Q01DX009 (ip), vehicle: water",103 % of control
same,T/C,"dose: 200.0 mg/kg/injection, schedule: Q01DX009 (ip), vehicle: water",119 % of control
NNC1=NCCS1,T/C,"dose: 0.31 mg/kg/injection, schedule: Q01DX009 (ip), vehicle: saline with Tween-80",101 % of control
same,T/C,"dose: 0.62 mg/kg/injection, schedule: Q01DX009 (ip), vehicle: saline with Tween-80",98 % of control
same,T/C,"dose: 1.25 mg/kg/injection, schedule: Q01DX009 (ip), vehicle: saline with Tween-80",104 % of control
O=C(O)c1ccnc2ccc3ccccc3c12,T/C,"dose: 50.0 mg/kg/injection, schedule: Q01DX005 (ip), vehicle: saline with Tween-80",93 % of control
same,T/C,"dose: 100.0 mg/kg/injection, schedule: Q01DX005 (ip), vehicle: saline with Tween-80",109 % of control
same,T/C,"dose: 200.0 mg/kg/injection, schedule: Q01DX005 (ip), vehicle: saline with Tween-80",118 % of control
COc1ccc2c(c1)c(CO)c(CO)c[n+]2[O-],T/C,[8],100 % of control
same,T/C,[9],96 % of control
same,T/C,[10],102 % of control
COc1ccccc1-c1cn(O)c2nc(=N)nc(N)c-2n1,T/C,[11],91 % of control
same,T/C,[12],89 % of control
same,T/C,"dose: 200.0 mg/kg/injection, schedule: Q04DX003 (ip), vehicle: saline with Tween-80",99 % of control
same,T/C,"dose: 400.0 mg/kg/injection, schedule: Q04DX003 (ip), vehicle: saline with Tween-80",107 % of control
NC1=C(O)C(=O)C(c2ccc(C3OC(N)=C(O)C3=O)cc2)O1 (configuration not stated),T/C,"dose: 60.0 mg/kg/injection, schedule: Q01DX005 (ip), vehicle: Klucel (hydroxypropylcellulose) (HPC)",101 % of control
same,T/C,"dose: 120.0 mg/kg/injection, schedule: Q01DX005 (ip), vehicle: Klucel (hydroxypropylcellulose) (HPC)",104 % of control
same,T/C,"dose: 240.0 mg/kg/injection, schedule: Q01DX005 (ip), vehicle: Klucel (hydroxypropylcellulose) (HPC)",96 % of control
CN(C)c1ccc2nc(/C=N/NC(N)=S)ccc2c1,T/C,"dose: 100.0 mg/kg/injection, schedule: Q04DX002 (ip), vehicle: distilled water + Tween-80 + alcohol",101 % of control
same,T/C,"dose: 200.0 mg/kg/injection, schedule: Q04DX002 (ip), vehicle: distilled water + Tween-80 + alcohol",92 % of control
COc1cc2c(cc1CCCc1cc(OC)c(OC)c(OC)c1)OCO2,T/C,[8],92 % of control
same,T/C,[9],89 % of control
same,T/C,[10],86 % of control
